The target of this experiment is T1, human renin (Homo sapiens, UniProt P00797).
T1 sequence (P00797 67-406): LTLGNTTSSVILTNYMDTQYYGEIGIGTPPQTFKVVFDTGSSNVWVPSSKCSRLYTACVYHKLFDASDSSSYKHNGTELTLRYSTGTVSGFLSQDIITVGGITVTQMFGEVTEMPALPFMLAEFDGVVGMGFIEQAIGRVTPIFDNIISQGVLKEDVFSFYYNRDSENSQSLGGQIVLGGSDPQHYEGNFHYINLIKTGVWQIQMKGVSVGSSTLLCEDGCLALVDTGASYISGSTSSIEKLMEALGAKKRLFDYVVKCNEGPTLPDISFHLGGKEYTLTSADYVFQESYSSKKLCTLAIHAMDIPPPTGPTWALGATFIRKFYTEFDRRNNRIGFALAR
Description: In vitro test with pure human renin. Type of experiment: biochemical. The note with it: human tetradecapeptide renin substrate (hTD), pH 7.4, incubated three hours at 37° C. or 4° C., angiotensin I via RIA. The method, then: In Vitro Test with Pure Human Renin
The test is carried out in Eppendorf test tubes. The incubation mixture consists of (1) 100 μl of human renin in buffer A (0.1M sodium phosphate solution, pH 7.4, 0.1% bovine serum albumin, 0.1% sodium azide and 1 mM ethylenediaminetetraacetic acid), sufficient for a renin activity of 2-3 ng of angiotensin I/ml/hr.; (2) 145 μl of buffer A; (3) 30 μl of 10 μm human tetradecapeptide renin substrate (hTD) in 10 mM hydrochloric acid; (4) 15 μl of dimethyl sulfoxide with or without inhibitor and (5) 10 μl of a 0.03 molar solution of hydroxy- quinoline sulfate in water.
The samples are incubated for three hours at 37° C. or 4° C. in triplicate. 2×100 μl samples per experimental test tube are used in order to measure the production of angiotensin I via RIA (standard radioimmunoassay; clinincal assay solid phase kit). Cross reactivities of the antibody used in the RIA are: angiotensin I 100%; angiotensin II 0.0013%; hTD (angiotensin I-Val-Ile-His-Ser-OH) 0.09%. The production of angiotensin I is determined by the difference between the experiment at 37° C. and that at 4° C.
The following controls are carried out:
(a) Incubation of hTD samples without renin and without inhibitor at 37° C. and 4° C. The difference between these two values gives the base value of angiotensin I production.
(b) Incubation of hTD samples with renin, but without inhibitor at 37° C. and 4° C. The difference between these values gives the maximal value of angiotensin I production.
In each sample the base value of angiotensin I production is substracted from the angiotensin I production which is determined. The difference between the maximal value and the base value gives the value of the maximal substrate hydrolysis (=100%) by renin.
The results are given as IC50 values which denote that concentration of the inhibitor at which the enzymatic activity is inhibited by 50%. The IC50 values are determined from a linear regression curve from a logit-log plot.

Seven molecules from patent US5278148A (Hoffmann-La Roche Inc., priority 1989, dated 1994) can be followed below.

Turning to `CC(C)(C)C(=O)C[C@@H](Cc1ccccc1)C(=O)N[C@@H](Cc1c[nH]cn1)C(=O)N[C@@H](CC1CCCCC1)[C@@H](O)CN1CCCCC1=O` [A, (S)-N-[(1S,2S)-1-(Cyclohexylmethyl)-2-hydroxy-3-(2oxopiperidino)propyl]-α-[(R)-α-(3,3-dimethyl-2-oxobutyl)hydrocinnamamido]imidazole-4-propionamide], the IC50 amounted to 41 nM. As for `CN(C[C@H](O)[C@H](CC1CCCCC1)NC(=O)[C@H](Cc1c[nH]cn1)NC(=O)[C@@H](CC(=O)C(C)(C)C)Cc1ccccc1)C(=O)[C@H](Cc1c[nH]cn1)NC(=O)[C@@H](CC(=O)C(C)(C)C)Cc1ccccc1` [C], half-maximal inhibition (IC50) was put at 28 nM. Molecule `CN(C[C@H](O)[C@H](CC1CCCCC1)NC(=O)[C@H](Cc1c[nH]cn1)NC(=O)[C@@H](CC(=O)C(C)(C)C)Cc1ccccc1)C(=O)[C@H](Cc1c[nH]cn1)NC(=O)CCc1ccccc1` [D, (S)-N-[(1S,2S)-1-(Cyclohexylmethyl)-2-hydroxy-3-[(S)-3-(imidazol-4-yl)-2-hydrocinnamamido-N-methylpropionamido]propyl]-α-[(R)-α-(3,3-dimethyl-2-oxobutyl)hydrocinnamamido]imidazole-4-propionamide] registered an IC50 of 19 nM. `CN(C[C@H](O)[C@H](CC1CCCCC1)NC(=O)[C@H](Cc1c[nH]cn1)NC(=O)[C@H](Cc1ccccc1)NC(=O)OC(C)(C)C)C(=O)[C@H](Cc1c[nH]cn1)NC(=O)[C@H](Cc1ccccc1)NC(=O)OC(C)(C)C` [E] came in with an IC50 of 30 nM. With `CN(C[C@H](O)[C@H](CC1CCCCC1)NC(=O)[C@H](Cc1c[nH]cn1)NC(=O)[C@H](Cc1ccccc1)NC(=O)OC(C)(C)C)C(=O)[C@H](Cc1ccccc1)NC(=O)OC(C)(C)C` [F, t-Butyl [(S)-α-[[(2S,3S)-3-[(S)-2-[(S)-α-(1-t-butoxyformamido)hydrocinnamamido]-3-imidazol-4-ylpropionamido]-4-cyclohexyl-2-hydroxybutyl]methylcarbamoyl]phenethyl]carbamate], the IC50 amounted to 15 nM. Next, `CC(C)(C)C(=O)C[C@@H](Cc1ccccc1)C(=O)N[C@@H](Cc1c[nH]cn1)C(=O)N[C@@H](CC1CCCCC1)[C@@H](O)CN1C(=O)c2ccccc2C1=O` [G, (S)-N-[(1S,2S)-1-(Cyclohexylmethyl)-2-hydroxy-3-phthalimidopropyl]-α-[(R)-α-(3,3-dimethyl-2-oxobutyl)hydrocinnamamido]imidazole-4-propionamide]: 20 nM; “(S)-N-[(1S,2S)-1-(Cyclohexylmethyl)-3-[(S)-α-[(R)-α-(3,3-dimethyl-2-oxobutyl)hydrocinnamamido]-N-isopropylimidazol-4-propionamido]-2-hydroxypropyl]-α-[(R)-α-(3,3-dimethyl-2-oxobutyl)hydrocinnamamido]imidazole-4-propionamide”: 41 nM.
